Test results published in PMC6362004, “Minor sequence modifications in temporin B cause drastic changes in antibacterial potency and selectivity by fundamentally altering membrane activity” (Scientific Reports, 2019).
In brackets after ≈: the same amount, converted by molar mass. Peptide text beside a SMILES is read from it.

Experiments:
[1] = test system: E. coli cytoplasmic membrane; conditions: cited from earlier work
From the text: Here we investigated whether a combined biophysical approach is capable of discriminating the species specific antibacterial mechanisms of action between three analogues of temporin B. Although structures for the three peptides solved in anionic SDS were noticeably different, when applied to model membranes, little difference in conformation could be discerned in the steady-state. To address this, we developed an approach using the Port-a-Patch® tool from Nanion Technologies (Munich, Germany) and correlated the findings obtained from patch-clamp analysis to the primary sequence and the biophys ...

[2] = test system: Pseudomonas aeruginosa PAO1; format: cell-based; conditions: PAO1, 18 h
Description: (§1) The antibacterial activity of the peptides studied was assessed through a modified two-fold broth microdilution assay, as described before. Briefly, a two-fold dilution of peptide stock solutions was performed in either non-cation adjusted Müller-Hinton broth (MHB) or Tryptic Soy broth (TSB) in a 96-well polypropylene microtiter plate. Then, 100 µl of bacterial suspension (back diluted from overnight cultures to an A600 of 0.01) were added to 100 µl of peptide solution in each well of the plate. Growth and sterility controls were present for each experiment. The plate was incubated at 37 °C for 18 hours without shaking and the MIC was defined as the lowest concentration where no visible growth could be detected by measuring the absorbance (A600) on an Omega plate reader.

[3] = test system: EMR Staphylococcus aureus-16 NCTC 13277; format: cell-based; conditions: NCTC 13277, 18 h
Description: as §1

[4] = test system: MS Staphylococcus aureus NCTC 6571; format: cell-based; conditions: NCTC 6571, 18 h
Description: as §1

Gram-negative bacteria = conditions: cited from earlier work
[5] = test system: EMR Staphylococcus aureus−15 NCTC 13616; format: cell-based; conditions: NCTC 13616, 18 h
Description: as §1

[6] = test system: VR Enterococcus faecalis NCTC 12201; format: cell-based; conditions: NCTC 12201, 18 h
Description: as §1

[7] = test system: Pseudomonas aeruginosa NCTC 13437; format: cell-based; conditions: NCTC 13437, 18 h
Description: as §1

[8] = test system: VS Enterococcus faecalis NCTC 775; format: cell-based; conditions: NCTC 775, 18 h
Description: as §1

[9] = test system: Acinetobacter baumanii AYE; format: cell-based; conditions: 18 h
Description: as §1

Row | Compound | MIC, peptide concentration [2] [µg/mL] | MIC, peptide concentration [3] [µg/mL] | MIC, peptide concentration [5] [µg/mL] | further results
1 | LL-37: human antimicrobial peptide |  |  |  | Time to permeabilization of the E. coli cytoplasmic membrane and induction of oxidative stress [1]: around 25 minutes
2 | CC[C@H](C)[C@H](NC(=O)[C@@H]1CCCN1C(=O)[C@H](CC(C)C)NC(=O)[C@@H](N)CC(C)C)C(=O)N[C@H](C(=O)NCC(=O)N[C@@H](CC(N)=O)C(=O)N[C@@H](CC(C)C)C(=O)N[C@@H](CC(C)C)C(=O)N[C@@H](CCCCN)C(=O)N[C@@H](CO)C(=O)N[C@@H](CC(C)C)C(=O)N[C@@H](CC(C)C)C(N)=O)C(C)C [Temporin B] (H-LLPIVGNLLKSLL-NH2) | >128 | 32 (≈ 23 µM) |  | MIC, peptide concentration [4]: 16 µg/mL (≈ 11.5 µM)
3 | temporin L |  |  |  | MIC (Gram-negative bacteria): 2 to 20 µM
4 | CC[C@H](C)[C@H](NC(=O)[C@@H]1CCCN1C(=O)[C@H](CC(C)C)NC(=O)[C@H](CC(C)C)NC(=O)[C@H](CCCCN)NC(=O)[C@@H](N)CCCCN)C(=O)N[C@H](C(=O)N[C@@H](C)C(=O)N[C@@H](CC(N)=O)C(=O)N[C@@H](CC(C)C)C(=O)N[C@@H](CC(C)C)C(=O)N[C@@H](CCCCN)C(=O)N[C@@H](CO)C(=O)N[C@@H](CC(C)C)C(=O)N[C@@H](CC(C)C)C(N)=O)C(C)C [Temporin B KKG6A] (H-KKLLPIVANLLKSLL-NH2) |  | >128 | >128 | MIC, peptide concentration [6]: >128 µg/mL; MIC, peptide concentration [7]: >128 µg/mL; MIC, peptide concentration [8]: >128 µg/mL
5 | CC[C@H](C)[C@H](NC(=O)[C@@H]1CCCN1C(=O)[C@H](CC(C)C)NC(=O)[C@@H](N)Cc1ccccc1)C(=O)N[C@H](C(=O)NCC(=O)N[C@@H](CC(C)C)C(=O)N[C@@H](CC(C)C)C(=O)N[C@@H](CCCCN)C(=O)N[C@@H](CO)C(=O)N[C@@H](CC(C)C)C(=O)N[C@@H](CC(C)C)C(=O)N[C@@H](CCCCN)C(N)=O)C(C)C [Temporin B L1FK] (H-FLPIVGLLKSLLK-NH2) | 128 (≈ 88.9 µM) | 16 (≈ 11.1 µM) | 16 (≈ 11.1 µM) | MIC, peptide concentration [9]: 8 µg/mL (≈ 5.56 µM)
